In brackets after ≈: the same amount, converted by molar mass.
Key:
bacterial growth = test: Preservatives against bacterial growth during soybean meal enzyme hydrolysis (pH profile); assay type: cell-based; details: preservative 2 g/L, 50° C., initial pH 4.8
Method: Systems that were considered in this section are identified on Table 16. All the systems contain 10 g of soybean meal. The enzyme hydrolysis was performed in 250 ml Erlenmeyer flasks which were agitated in orbital shaker at 250 rpm and at 50° C.
For control system, only water was added (no enzyme was added). For non-sterilized system, 10 g of soybean meal was mixed with 4 ml of enzyme broth and about 70 ml DI water. In the case of liquid autoclave system, 10 g of soybean meal was mixed with about 40 ml DI water and was autoclaved for 15 min. After autoclaving, an additional 30 ml of DI water (sterile) and 4 ml of enzyme broth were added. For vacuum autoclave systems, 10 g of soybean meal was autoclaved dry under vacuum cycle in the autoclave with no water for 15 and 45 min, respectively. After the autoclave cycle, 4 ml of enzyme broth and an additional 30 ml of DI water (sterile) was added. In case the sodium benzoate and sodium nitrite systems, 10 g of soybean meal was mixed with 2 g/L of either sodium benzoate or sodium nitrite, enzyme broth and DI water. There was no autoclaving or heating step used in these preservatives systems. The activity of the enzymes in the broth used for these experiments is shown on Table 17. The pH of all of the systems was adjusted to 4.8. Samples were taken periodically for the measurement of reducing sugars.

[1] = tested on: bacterial growth present as spores in the soy flour; test: Sodium benzoate concentration to inhibit bacterial growth in soy flour hydrolysis; assay type: cell-based; details: soy flour enzyme hydrolysis
Method: Sodium benzoate (Na.B) was used to inhibit the bacterial growth present as spores in the soy flour that was being used for enzyme hydrolysis enrichment of the soy proteins. Different sodium benzoate concentrations were studied to determine the best concentration of sodium benzoate to inhibit bacterial growth. It was determined that Na.B level of 2 g/L was effective. The hydrolysate byproduct of enzyme hydrolysis of the soy flour having different sugars was intended to be used for arabitol production using Debaryomyces hansenii. In order for this enzyme hydrolysate to be suitable for arabitol production, however, the sodium benzoate must be removed. Accordingly, the maximum concentration that could remain in the hydrolysate that is not inhibitory for D. hansenii growth was determined by this MIC of Na.B test with D. hansenii.

Debaryomyces hansenii = test: MIC study of benzoic acid for the growth of Debaryomyces hansenii; assay type: cell-based
Method: D. hansenii was inoculated first in a pre-culture medium with the following medium composition (g/L): Glucose 10, Peptone 5, Malt extract 3 and yeast extract 3. A pre-culture was performed in a 250 ml Erlenmeyer flask with 50 ml culture volume in an orbital shaker at 250 rpm and at a temperature of 30° C. After 36 hours, 5% inoculum is transferred into systems with the different benzoic acid concentrations shown in Table 11 and the medium composition shown in Table 12, each system in a 250 ml Erlenmeyer flask with a 50 ml working volume. These flasks were placed in an orbital shaker at 250 rpm and a temperature of 30° C. Samples were taken every 24 h for 3 days and the pH and cell concentrations were measured and recorded.
Cell growth was measured as optical density (OD) by measuring the absorbance of the washed cells at 610 nm with UV-vis spectrophotometer. A known amount of sample was centrifuged at 8000 rpm for 10 min and the supernatant was separated and saved for further analysis. Cell pellet was washed with DI water and centrifuge again under same conditions. Cell pellet was dispersed in water and the absorbance was measured at 610 nm.

[2] = tested on: another strain of Debaryomyces hansenii; details: cited from earlier work

SMILES | bacterial growth judged from pH profile (bacterial growth) | level effective to inhibit bacterial growth [1] [g/L] | MIC (Debaryomyces hansenii; Debaryomyces hansenii, read-out: MIC against the growth of D. hansenii) [µg/mL] | Specific growth rate (μ), (Debaryomyces hansenii; benzoic acid 0.01 g/L) [h⁻¹] | effect on D. hansenii growth (Debaryomyces hansenii; benzoic acid 0.01 g/L) | Specific growth rate (μ), (Debaryomyces hansenii; benzoic acid 0.025 g/L) [h⁻¹] | Specific growth rate (μ), (Debaryomyces hansenii; benzoic acid 0.05 g/L) [h⁻¹] | Specific growth rate (μ), (Debaryomyces hansenii; benzoic acid 0.10 g/L) [h⁻¹] | Specific growth rate (μ), (Debaryomyces hansenii; benzoic acid 0.25 g/L) [h⁻¹] | cell growth measured as OD (Debaryomyces hansenii; benzoic acid 0.25 g/L) | MIC concentration [2] [µg/mL]
O=C([O-])c1ccccc1.[Na+] [sodium benzoate, Sodium benzoate] | absence of bacterial growth | 2 | – | – | – | – | – | – | – | – | –
O=NO [sodium nitrite] | absence of bacterial growth | – | – | – | – | – | – | – | – | – | –
O=C(O)c1ccccc1 [Benzoic acid] | – | – | 250 (≈ 2050 µM) | 0.089 | very little inhibitory effect | 0.082 | 0.079 | 0.075 | 0.022 | almost no cell growth | 400 to 500
